# Experimental data published in the supplement of paper PMC10307832.
# Assays:
# Assay in all cases: relative viability (nuclei count vs DMSO), 5 days (fraction); higher = more cells survive
# [1] = compound: C1=CC2=C(C=C(C(=C2N=C1)O)N=NC3=CC4=C(C=C3)C=C(C=C4)S(=O)(=O)O)S(=O)(=O)O + CC1(C)CCC(c2ccc(Cl)cc2)=C(CN2CCN(c3ccc(C(=O)NS(=O)(=O)c4ccc(N[C@H](CCN5CCOCC5)CSc5ccccc5)c(S(=O)(=O)C(F)(F)F)c4)cc3)CC2)C1 [Navitoclax] (partner 0.5 µM)
# How it was run: (§1)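 One day after seeding in 1536-well plates, lung cancer cell lines were dosed by pin tool. Dosing was either single-drug or a fixed anchor-drug dose plus five library-drug doses (not always all listed) in √10 steps. After 5 days, nuclei were stained in one fix-and-stain step and counted on 4× images, and relative viability is the nuclei count of treated wells over that of vehicle wells, given as the median of duplicate plates.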
# [2] = compound: C1=CC2=C(C=C(C(=C2N=C1)O)N=NC3=CC4=C(C=C3)C=C(C=C4)S(=O)(=O)O)S(=O)(=O)O + N=C(N)NC(=N)NCCc1ccccc1 [Phenformin] (partner 250 µM)
# How it was run: as §1
# [3] = compound: O=C(NC1CCNCC1)c1n[nH]cc1NC(=O)c1c(Cl)cccc1Cl [AT-7519] + CCNC(=O)c1noc(-c2cc(C(C)C)c(O)cc2O)c1-c1ccc(CN2CCOCC2)cc1 [Luminespib] (partner 0.01 µM)
# How it was run: as §1
# [4] = compound: O=C(NC1CCNCC1)c1n[nH]cc1NC(=O)c1c(Cl)cccc1Cl [AT-7519] + Cc1nc(NC(=O)N2CCC[C@H]2C(N)=O)sc1-c1ccnc(C(C)(C)C(F)(F)F)c1 [Alpelisib] (partner 2 µM)
# How it was run: as §1
Cell Line,relative viability ([1]; first compound 0.08 µM),relative viability ([1]; first compound 0.253 µM),relative viability ([1]; first compound 0.8 µM),relative viability ([1]; first compound 2.53 µM),relative viability ([1]; first compound 8 µM),relative viability ([2]; first compound 0.08 µM),relative viability ([2]; first compound 0.253 µM),relative viability ([2]; first compound 0.8 µM),relative viability ([2]; first compound 2.53 µM),relative viability ([2]; first compound 8 µM),relative viability ([3]; first compound 0.01 µM),relative viability ([3]; first compound 0.03162 µM),relative viability ([3]; first compound 0.3162 µM),relative viability ([3]; first compound 1 µM),relative viability ([4]; first compound 0.01 µM),relative viability ([4]; first compound 0.03162 µM),relative viability ([4]; first compound 0.3162 µM),relative viability ([4]; first compound 1 µM)
NCI-H1944,1.13,0.982,0.992,1.06,0.991,0.237,0.199,0.19,0.199,0.193,0.846,0.775,0.677,0.554,0.86,0.787,0.799,0.74
NCI-H1975,1.3,1.13,1.07,1.26,0.979,0.424,0.434,0.413,0.386,0.39,0.21,0.176,0.317,0.126,0.63,0.658,0.381,0.152
NCI-H1993,1.05,0.913,1.05,0.893,1.01,0.492,0.488,0.537,0.528,0.527,0.788,0.823,0.844,0.388,0.728,0.677,0.676,0.614
NCI-H2009,1.19,1.1,1.08,1.14,1.18,0.498,0.455,0.504,0.498,0.441,1.03,1.03,1.02,0.881,1.14,1.12,1.15,0.668
NCI-H2023,1.03,1.01,0.965,0.984,0.973,0.393,0.394,0.432,0.376,0.379,0.622,0.748,0.521,0.16,0.648,0.711,0.498,0.3
NCI-H2085,1.2,1.14,0.98,1.12,1.18,0.795,0.743,0.687,0.752,0.755,0.528,0.405,0.489,0.515,0.899,0.926,0.941,0.656
NCI-H2087,0.926,0.878,0.868,0.889,0.948,0.469,0.447,0.452,0.455,0.459,0.178,0.16,0.141,0.116,1.14,1.21,1.01,0.161
NCI-H2126,0.882,0.792,0.845,0.935,0.832,0.564,0.535,0.514,0.557,0.559,1.02,0.916,0.805,0.297,0.766,0.798,0.749,0.695
NCI-H2170,0.628,0.477,0.544,0.637,0.707,0.46,0.404,0.417,0.424,0.391,0.398,0.636,0.807,0.599,0.828,0.796,0.794,0.81
NCI-H2228,1.09,0.801,0.953,0.577,0.874,0.441,0.341,0.296,0.303,0.423,0.152,0.174,0.156,0.165,0.972,0.821,0.584,0.415
NCI-H2347,0.898,0.738,0.809,0.917,0.391,0.356,0.318,0.438,0.558,0.303,0.83,0.268,0.392,0.39,1.2,0.952,1.08,0.771
NCI-H2405,0.86,0.746,0.959,0.993,0.788,0.382,0.384,0.371,0.342,0.362,0.713,0.718,0.592,0.281,0.934,0.773,0.716,0.331
NCI-H3122,0.98,1.04,0.996,1.03,1.04,0.369,0.379,0.378,0.418,0.323,0.104,0.0901,0.112,0.0695,0.827,0.699,0.813,0.263
PC-3 [JPC-3],0.888,0.748,0.854,0.722,0.725,0.474,0.473,0.477,0.478,0.494,0.515,0.558,0.694,0.623,1.02,1.03,1.04,1.03
PC-14,1.02,0.973,0.982,1.05,1.01,0.511,0.486,0.523,0.642,0.485,0.196,0.151,0.151,0.111,0.839,1,1,0.912
RERF-LC-KJ,1.12,1.01,0.963,1.05,0.877,0.439,0.39,0.435,0.439,0.43,1.18,1.21,0.856,0.311,0.787,0.718,0.768,0.537
SK-LU-1,1.15,0.947,0.747,0.732,0.801,0.597,0.493,0.558,0.572,0.624,0.221,0.195,0.202,0.2,1.13,0.94,0.861,0.351
